{"source": "paper PMC6149898", "about": "“GPCR Modulation of Thieno[2,3-b]pyridine Anti-Proliferative Agents” (Molecules : A Journal of Synthetic Chemistry and Natural …, 2017)", "key": {"CALCRL-RAMP3": {"target": "T1, CALCRL-RAMP3 (Homo sapiens, UniProt O60896+Q16602)", "T1 construct": "ProLink (beta-galactosidase enzyme-donor fragment)", "T1 sequence (Q16602 23-461)": "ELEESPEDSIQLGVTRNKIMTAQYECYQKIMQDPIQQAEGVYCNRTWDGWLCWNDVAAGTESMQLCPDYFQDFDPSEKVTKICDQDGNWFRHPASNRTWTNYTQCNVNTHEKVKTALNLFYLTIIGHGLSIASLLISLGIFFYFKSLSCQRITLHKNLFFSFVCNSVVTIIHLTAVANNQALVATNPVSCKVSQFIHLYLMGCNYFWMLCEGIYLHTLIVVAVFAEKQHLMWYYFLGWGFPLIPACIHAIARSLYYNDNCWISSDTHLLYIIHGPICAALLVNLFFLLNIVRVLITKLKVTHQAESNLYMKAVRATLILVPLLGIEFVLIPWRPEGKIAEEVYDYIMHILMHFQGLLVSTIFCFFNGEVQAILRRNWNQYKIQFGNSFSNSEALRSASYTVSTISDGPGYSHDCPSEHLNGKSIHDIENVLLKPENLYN", "T1 sequence (O60896 24-148 partner)": "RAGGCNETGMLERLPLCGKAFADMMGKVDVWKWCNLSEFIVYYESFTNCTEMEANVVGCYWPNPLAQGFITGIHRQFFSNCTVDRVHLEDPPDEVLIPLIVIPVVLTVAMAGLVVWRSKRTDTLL", "assay": "gpcrMAX PathHunter beta-arrestin", "assay_type": "cell-based", "description": "(§1) complementation (EFC) technology. […]\n(§2) challenge at the EC80 concentration. […]\n(§3) minutes. Vehicle concentration was 1%. […]\n(§4) room temperature for 90 or 180 minutes. […]\n(§5) instrument for chemiluminescent signal detection.\n(§6) 11 GPCR MAX dose response, Agonist and Antagonist\n(§7) Targets (60 Data points each): i) CALCRL‐RAMP3‐Antagonist\n(§8) 180 minutes. Vehicle concentration was 1%. […]\n(§9) hours. Vehicle concentration was 1%. Extended incubation is typically required to observe an inverse agonist response in the PathHunter arrestin assay.\n(§10) Positive Allosteric Modulation Format\n(§11) 1. For allosteric determination, cells were pre-incubated with sample followed by agonist induction at the EC20 concentration. […]\n(§12) temperature for 90 or 180 minutes.\n(§13) Antagonist/Negative Allosteric Modulation Format\n(§14) 1. Compound activity was analyzed using CBIS data analysis suite (ChemInnovation, CA)."}, "CXCR4": {"target": "T2, CXCR4 (Homo sapiens, UniProt P61073)", "T2 construct": "ProLink (beta-galactosidase enzyme-donor fragment)", "T2 sequence (P61073 whole entry, the tested form may be a part)": "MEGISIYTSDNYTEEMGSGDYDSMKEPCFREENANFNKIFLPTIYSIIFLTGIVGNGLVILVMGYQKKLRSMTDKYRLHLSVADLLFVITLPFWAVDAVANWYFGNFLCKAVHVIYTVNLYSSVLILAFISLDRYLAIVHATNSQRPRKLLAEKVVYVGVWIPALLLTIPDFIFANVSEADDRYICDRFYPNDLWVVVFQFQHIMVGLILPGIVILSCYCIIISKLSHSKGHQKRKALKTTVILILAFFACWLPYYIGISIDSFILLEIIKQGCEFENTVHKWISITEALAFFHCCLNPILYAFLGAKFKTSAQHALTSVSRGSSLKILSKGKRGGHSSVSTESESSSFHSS", "assay": "gpcrMAX PathHunter beta-arrestin", "assay_type": "cell-based", "description": "as §1, §2, §3, §4, §5, §6, §7, §8, §9, §10, §11, §12, §13, §14"}, "GPR35": {"target": "T3, GPR35 (Homo sapiens, UniProt Q9HC97)", "T3 construct": "ProLink (beta-galactosidase enzyme-donor fragment)", "T3 sequence (Q9HC97 whole entry, the tested form may be a part)": "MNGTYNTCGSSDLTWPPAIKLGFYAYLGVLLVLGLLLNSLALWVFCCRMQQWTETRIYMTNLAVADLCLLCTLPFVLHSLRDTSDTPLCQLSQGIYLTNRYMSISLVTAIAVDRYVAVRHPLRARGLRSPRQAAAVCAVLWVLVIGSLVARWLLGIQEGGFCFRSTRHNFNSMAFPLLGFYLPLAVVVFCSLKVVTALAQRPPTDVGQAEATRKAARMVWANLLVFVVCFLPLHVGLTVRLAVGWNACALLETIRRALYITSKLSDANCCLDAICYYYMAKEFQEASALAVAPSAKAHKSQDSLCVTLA", "assay": "gpcrMAX PathHunter beta-arrestin", "assay_type": "cell-based", "description": "as §1, §2, §3, §4, §5, §6, §7, §8, §9, §10, §11, §12, §13, §14"}, "HTR1B": {"target": "T4, HTR1B (Homo sapiens, UniProt P28222)", "T4 construct": "ProLink (beta-galactosidase enzyme-donor fragment)", "T4 sequence (P28222 whole entry, the tested form may be a part)": "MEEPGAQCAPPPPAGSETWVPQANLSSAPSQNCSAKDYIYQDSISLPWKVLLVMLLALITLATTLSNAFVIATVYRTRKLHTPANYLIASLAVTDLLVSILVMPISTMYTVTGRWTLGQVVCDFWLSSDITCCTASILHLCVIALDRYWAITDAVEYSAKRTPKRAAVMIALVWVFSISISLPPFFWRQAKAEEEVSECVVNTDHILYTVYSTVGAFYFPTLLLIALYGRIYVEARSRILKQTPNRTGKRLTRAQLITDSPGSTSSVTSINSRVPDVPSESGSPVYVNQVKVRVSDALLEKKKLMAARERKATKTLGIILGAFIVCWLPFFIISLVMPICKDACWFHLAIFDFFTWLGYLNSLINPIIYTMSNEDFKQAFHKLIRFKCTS", "assay": "gpcrMAX PathHunter beta-arrestin", "assay_type": "cell-based", "description": "as §1, §2, §3, §4, §5, §6, §7, §8, §9, §10, §11, §12, §13, §14"}, "NPSR1B": {"target": "T5, NPSR1B (Homo sapiens, UniProt Q6W5P4)", "T5 construct": "ProLink (beta-galactosidase enzyme-donor fragment)", "T5 sequence (Q6W5P4 1-377 isoform Q6W5P4-4)": "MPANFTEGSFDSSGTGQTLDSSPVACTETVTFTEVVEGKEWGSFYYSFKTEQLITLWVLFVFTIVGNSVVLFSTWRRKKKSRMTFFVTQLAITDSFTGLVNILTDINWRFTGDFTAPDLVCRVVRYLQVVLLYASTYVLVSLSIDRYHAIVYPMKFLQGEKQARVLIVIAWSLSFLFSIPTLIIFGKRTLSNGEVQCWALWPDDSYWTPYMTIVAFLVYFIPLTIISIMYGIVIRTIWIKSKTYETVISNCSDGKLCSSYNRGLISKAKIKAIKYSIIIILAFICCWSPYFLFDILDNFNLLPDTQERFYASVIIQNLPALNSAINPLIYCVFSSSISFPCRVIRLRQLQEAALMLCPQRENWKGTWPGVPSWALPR", "assay": "gpcrMAX PathHunter beta-arrestin", "assay_type": "cell-based", "description": "as §1, §2, §3, §4, §5, §6, §7, §8, §9, §10, §11, §12, §13, §14"}, "PRLHR": {"target": "T6, PRLHR (Homo sapiens, UniProt P49683)", "T6 construct": "ProLink (beta-galactosidase enzyme-donor fragment)", "T6 sequence (P49683 whole entry, the tested form may be a part)": "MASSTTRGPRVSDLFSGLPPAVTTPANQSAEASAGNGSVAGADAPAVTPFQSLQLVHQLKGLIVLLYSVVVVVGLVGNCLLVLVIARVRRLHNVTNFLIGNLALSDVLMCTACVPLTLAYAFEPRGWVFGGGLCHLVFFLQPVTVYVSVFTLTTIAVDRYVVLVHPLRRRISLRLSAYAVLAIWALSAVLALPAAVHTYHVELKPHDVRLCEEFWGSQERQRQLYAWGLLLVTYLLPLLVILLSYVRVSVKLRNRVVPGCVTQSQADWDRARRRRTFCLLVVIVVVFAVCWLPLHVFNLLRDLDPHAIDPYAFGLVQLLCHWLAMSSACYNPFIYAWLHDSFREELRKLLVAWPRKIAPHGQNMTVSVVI", "assay": "gpcrMAX PathHunter beta-arrestin", "assay_type": "cell-based", "description": "as §1, §2, §3, §4, §5, §6, §7, §8, §9, §10, §11, §12, §13, §14"}, "CO:HCT-116": {"test_system": "CO:HCT-116", "design": "method as in earlier work", "settings": "NCI-60 panel; ref [4],[5],[6],[7]; cited from earlier work"}, "CO:HT29": {"test_system": "CO:HT29", "design": "method as in earlier work", "settings": "NCI-60 panel; ref [4],[5],[6],[7]; cited from earlier work"}, "CO:KM12": {"test_system": "CO:KM12", "design": "method as in earlier work", "settings": "NCI-60 panel; ref [4],[5],[6],[7]; cited from earlier work"}, "LE:MOLT-4": {"test_system": "LE:MOLT-4", "design": "method as in earlier work", "settings": "NCI-60 panel; ref [4],[5],[6],[7]; cited from earlier work"}, "LC:NCI-H23": {"test_system": "LC:NCI-H23", "design": "method as in earlier work", "settings": "NCI-60 panel; ref [4],[5],[6],[7]; cited from earlier work"}, "RE:A498": {"test_system": "RE:A498", "design": "method as in earlier work", "settings": "NCI-60 panel; ref [4],[5],[6],[7]; cited from earlier work"}, "C3AR1": {"target": "C3AR1 (Homo sapiens, UniProt Q16581)", "sequence (Q16581 whole entry)": "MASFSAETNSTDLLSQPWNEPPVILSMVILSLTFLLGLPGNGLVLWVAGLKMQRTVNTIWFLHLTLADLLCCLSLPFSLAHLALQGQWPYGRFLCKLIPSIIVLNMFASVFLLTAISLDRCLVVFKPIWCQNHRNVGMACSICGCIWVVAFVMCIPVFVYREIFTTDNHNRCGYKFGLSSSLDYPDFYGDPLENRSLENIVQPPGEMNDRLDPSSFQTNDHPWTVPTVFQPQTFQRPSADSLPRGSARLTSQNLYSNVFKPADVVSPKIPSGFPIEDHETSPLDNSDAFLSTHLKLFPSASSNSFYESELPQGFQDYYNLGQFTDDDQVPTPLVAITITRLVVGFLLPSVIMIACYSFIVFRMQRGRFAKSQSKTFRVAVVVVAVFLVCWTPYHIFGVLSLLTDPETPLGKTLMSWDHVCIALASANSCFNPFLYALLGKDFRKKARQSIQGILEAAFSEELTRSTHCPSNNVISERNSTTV", "assay": "gpcrMAX PathHunter beta-arrestin"}, "C5AR1": {"target": "C5AR1 (Homo sapiens, UniProt P21730)", "assay": "gpcrMAX PathHunter beta-arrestin"}, "C5L2": {"target": "C5L2 (Homo sapiens, UniProt Q9P296)", "assay": "gpcrMAX PathHunter beta-arrestin"}, "CHRM1": {"target": "CHRM1 (Homo sapiens, UniProt P11229)", "assay": "gpcrMAX PathHunter beta-arrestin"}, "CHRM2": {"target": "CHRM2 (Homo sapiens, UniProt P08172)", "assay": "gpcrMAX PathHunter beta-arrestin"}, "CHRM4": {"target": "CHRM4 (Homo sapiens, UniProt P08173)", "sequence (P08173 whole entry)": "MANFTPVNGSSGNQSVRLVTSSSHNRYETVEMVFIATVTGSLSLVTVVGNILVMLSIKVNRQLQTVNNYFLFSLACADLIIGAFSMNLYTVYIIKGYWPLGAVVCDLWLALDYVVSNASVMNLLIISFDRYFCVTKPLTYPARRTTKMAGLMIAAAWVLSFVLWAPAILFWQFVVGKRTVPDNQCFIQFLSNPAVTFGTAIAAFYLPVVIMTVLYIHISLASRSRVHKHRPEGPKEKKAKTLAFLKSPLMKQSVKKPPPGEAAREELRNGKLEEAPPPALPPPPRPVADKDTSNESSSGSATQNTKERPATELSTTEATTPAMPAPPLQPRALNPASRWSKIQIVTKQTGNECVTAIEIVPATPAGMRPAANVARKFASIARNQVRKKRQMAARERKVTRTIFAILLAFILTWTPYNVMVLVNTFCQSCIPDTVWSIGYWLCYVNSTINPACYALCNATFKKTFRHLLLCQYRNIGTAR", "assay": "gpcrMAX PathHunter beta-arrestin"}, "CRHR1": {"target": "CRHR1 (Homo sapiens, UniProt P34998)", "assay": "gpcrMAX PathHunter beta-arrestin"}, "DRD1": {"target": "DRD1 (Homo sapiens, UniProt P21728)", "sequence (P21728 whole entry)": "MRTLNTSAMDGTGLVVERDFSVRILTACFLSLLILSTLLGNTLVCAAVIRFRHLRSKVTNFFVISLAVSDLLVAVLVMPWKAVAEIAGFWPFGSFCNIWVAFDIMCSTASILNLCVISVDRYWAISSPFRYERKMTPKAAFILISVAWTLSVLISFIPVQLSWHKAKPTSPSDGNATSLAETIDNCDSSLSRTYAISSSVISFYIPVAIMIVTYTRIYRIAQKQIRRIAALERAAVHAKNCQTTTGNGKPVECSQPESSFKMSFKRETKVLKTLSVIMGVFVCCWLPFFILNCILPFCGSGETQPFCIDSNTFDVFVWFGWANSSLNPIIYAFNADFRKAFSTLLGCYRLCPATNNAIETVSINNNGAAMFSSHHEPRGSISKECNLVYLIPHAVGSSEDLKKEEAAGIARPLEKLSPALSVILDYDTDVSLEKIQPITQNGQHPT", "assay": "gpcrMAX PathHunter beta-arrestin"}, "DRD4": {"target": "DRD4 (Homo sapiens, UniProt P21917)", "assay": "gpcrMAX PathHunter beta-arrestin"}, "EDG4": {"target": "EDG4 (Homo sapiens, UniProt Q9HBW0)", "assay": "gpcrMAX PathHunter beta-arrestin"}, "EDG5": {"target": "EDG5 (Homo sapiens, UniProt O95136)", "assay": "gpcrMAX PathHunter beta-arrestin"}, "GLP2R": {"target": "GLP2R (Homo sapiens, UniProt O95838)", "assay": "gpcrMAX PathHunter beta-arrestin"}, "HCRTR2": {"target": "HCRTR2 (Homo sapiens, UniProt O43614)", "assay": "gpcrMAX PathHunter beta-arrestin"}, "HRH4": {"target": "HRH4 (Homo sapiens, UniProt Q9H3N8)", "sequence (Q9H3N8 whole entry)": "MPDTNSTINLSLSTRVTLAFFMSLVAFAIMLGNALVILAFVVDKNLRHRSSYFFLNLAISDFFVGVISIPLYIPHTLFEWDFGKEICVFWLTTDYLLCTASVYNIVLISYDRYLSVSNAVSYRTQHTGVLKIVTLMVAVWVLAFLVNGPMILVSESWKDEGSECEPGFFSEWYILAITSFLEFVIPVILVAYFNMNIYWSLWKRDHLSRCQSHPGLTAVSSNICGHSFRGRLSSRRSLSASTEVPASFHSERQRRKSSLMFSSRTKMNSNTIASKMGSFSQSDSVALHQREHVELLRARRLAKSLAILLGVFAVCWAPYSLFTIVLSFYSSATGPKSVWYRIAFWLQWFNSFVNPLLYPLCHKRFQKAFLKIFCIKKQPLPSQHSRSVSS", "assay": "gpcrMAX PathHunter beta-arrestin"}, "HTR2A": {"target": "HTR2A (Homo sapiens, UniProt P28223)", "assay": "gpcrMAX PathHunter beta-arrestin"}, "MC4R": {"target": "MC4R (Homo sapiens, UniProt P32245)", "sequence (P32245 whole entry)": "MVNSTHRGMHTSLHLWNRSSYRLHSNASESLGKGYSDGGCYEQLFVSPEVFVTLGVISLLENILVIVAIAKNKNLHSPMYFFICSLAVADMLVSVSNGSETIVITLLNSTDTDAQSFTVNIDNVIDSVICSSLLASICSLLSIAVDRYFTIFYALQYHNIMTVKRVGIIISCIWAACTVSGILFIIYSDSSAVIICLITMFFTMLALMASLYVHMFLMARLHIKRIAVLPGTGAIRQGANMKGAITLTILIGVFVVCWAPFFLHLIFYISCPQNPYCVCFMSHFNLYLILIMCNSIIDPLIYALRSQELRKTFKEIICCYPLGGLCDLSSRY", "assay": "gpcrMAX PathHunter beta-arrestin"}, "MLNR": {"target": "MLNR (Homo sapiens, UniProt O43193)", "assay": "gpcrMAX PathHunter beta-arrestin"}, "OPRM1": {"target": "OPRM1 (Homo sapiens, UniProt P35372)", "assay": "gpcrMAX PathHunter beta-arrestin"}, "P2RY11": {"target": "P2RY11 (Homo sapiens, UniProt Q96G91)", "assay": "gpcrMAX PathHunter beta-arrestin"}, "P2RY6": {"target": "P2RY6 (Homo sapiens, UniProt Q15077)", "sequence (Q15077 whole entry)": "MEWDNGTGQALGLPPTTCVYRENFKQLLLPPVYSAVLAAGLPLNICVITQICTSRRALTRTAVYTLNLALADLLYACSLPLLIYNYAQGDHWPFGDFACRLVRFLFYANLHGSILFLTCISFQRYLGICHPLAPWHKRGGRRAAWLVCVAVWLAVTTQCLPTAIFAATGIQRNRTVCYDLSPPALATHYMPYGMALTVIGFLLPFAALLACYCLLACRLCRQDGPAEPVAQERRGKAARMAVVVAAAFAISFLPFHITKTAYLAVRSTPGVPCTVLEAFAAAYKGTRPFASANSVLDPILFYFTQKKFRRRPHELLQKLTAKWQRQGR", "assay": "gpcrMAX PathHunter beta-arrestin"}, "SSTR3": {"target": "SSTR3 (Homo sapiens, UniProt P32745)", "assay": "gpcrMAX PathHunter beta-arrestin"}, "TACR2": {"target": "TACR2 (Homo sapiens, UniProt P21452)", "assay": "gpcrMAX PathHunter beta-arrestin"}, "TACR3": {"target": "TACR3 (Homo sapiens, UniProt P29371)", "assay": "gpcrMAX PathHunter beta-arrestin"}, "[1]": {"settings": "antagonist format, dose response"}}, "note": "pEC50, pIC50: −log10 of the molar value.", "data": [{"smiles": "Cc1c(Cl)cccc1NC(=O)c1sc2nc3c(cc2c1N)C(=O)CCC3", "note": "[Compound 1]", "values": [{"measurement": "pIC50", "setting": "CALCRL-RAMP3; [1]", "value": 4.92}, {"measurement": "inhibition at 10 µM", "setting": "CALCRL-RAMP3; antagonist mode, 10 µM", "value": 63, "unit": "%"}, {"measurement": "pIC50", "setting": "CXCR4; [1]", "value": 5.16}, {"measurement": "inhibition at 10 µM", "setting": "CXCR4; antagonist mode, 10 µM", "value": 39, "unit": "%"}, {"measurement": "pEC50", "setting": "GPR35; agonist format, dose response", "value": 5.12}, {"measurement": "inhibition at 10 µM", "setting": "GPR35; antagonist mode, 10 µM", "value": -12, "unit": "%"}, {"measurement": "pIC50", "setting": "HTR1B; [1]", "value": "< 4.30"}, {"measurement": "inhibition at 10 µM", "setting": "HTR1B; antagonist mode, 10 µM", "value": 42, "unit": "%"}, {"measurement": "pIC50", "setting": "NPSR1B; [1]", "value": 6.00}, {"measurement": "inhibition at 10 µM", "setting": "NPSR1B; antagonist mode, 10 µM", "value": 59, "unit": "%"}, {"measurement": "pIC50", "setting": "PRLHR; [1]", "value": 5.03}, {"measurement": "inhibition at 10 µM", "setting": "PRLHR; antagonist mode, 10 µM", "value": 44, "unit": "%"}, {"measurement": "GI50", "setting": "CO:HCT-116", "value": 66.8, "unit": "nM"}, {"measurement": "GI50", "setting": "CO:HT29", "value": 49, "unit": "nM"}, {"measurement": "GI50", "setting": "CO:KM12", "value": 67.3, "unit": "nM"}, {"measurement": "GI50", "setting": "LE:MOLT-4", "value": 476, "unit": "nM"}, {"measurement": "GI50", "setting": "LC:NCI-H23", "value": 169, "unit": "nM"}, {"measurement": "GI50", "setting": "RE:A498", "value": 23.2, "unit": "nM"}, {"measurement": "inhibition at 10 µM", "setting": "C3AR1", "value": -3, "unit": "%"}, {"measurement": "inhibition at 10 µM", "setting": "C5AR1", "value": 2, "unit": "%"}, {"measurement": "inhibition at 10 µM", "setting": "C5L2", "value": -20, "unit": "%"}, {"measurement": "inhibition at 10 µM", "setting": "CHRM1", "value": 0, "unit": "%"}, {"measurement": "inhibition at 10 µM", "setting": "CHRM2", "value": -14, "unit": "%"}, {"measurement": "inhibition at 10 µM", "setting": "CHRM4", "value": -10, "unit": "%"}, {"measurement": "inhibition at 10 µM", "setting": "CRHR1", "value": 20, "unit": "%"}, {"measurement": "inhibition at 10 µM", "setting": "DRD1", "value": 12, "unit": "%"}, {"measurement": "inhibition at 10 µM", "setting": "DRD4", "value": -7, "unit": "%"}, {"measurement": "inhibition at 10 µM", "setting": "EDG4", "value": 7, "unit": "%"}, {"measurement": "inhibition at 10 µM", "setting": "EDG5", "value": -1, "unit": "%"}, {"measurement": "inhibition at 10 µM", "setting": "GLP2R", "value": 16, "unit": "%"}, {"measurement": "inhibition at 10 µM", "setting": "HCRTR2", "value": 8, "unit": "%"}, {"measurement": "inhibition at 10 µM", "setting": "HRH4", "value": 32, "unit": "%"}, {"measurement": "inhibition at 10 µM", "setting": "HTR2A", "value": -1, "unit": "%"}, {"measurement": "inhibition at 10 µM", "setting": "MC4R", "value": -42, "unit": "%"}, {"measurement": "inhibition at 10 µM", "setting": "MLNR", "value": -18, "unit": "%"}, {"measurement": "inhibition at 10 µM", "setting": "OPRM1", "value": -18, "unit": "%"}, {"measurement": "inhibition at 10 µM", "setting": "P2RY11", "value": -6, "unit": "%"}, {"measurement": "inhibition at 10 µM", "setting": "P2RY6", "value": -17, "unit": "%"}, {"measurement": "inhibition at 10 µM", "setting": "SSTR3", "value": 5, "unit": "%"}, {"measurement": "inhibition at 10 µM", "setting": "TACR2", "value": 14, "unit": "%"}, {"measurement": "inhibition at 10 µM", "setting": "TACR3", "value": 5, "unit": "%"}]}]}
